Read-outs that look alike come from different tables or passages of the source. *1 amine or outer side, *2 acyl side, *3 side chain or, on linkers, in order; H or OH if unused. Where a SMILES comes first, the peptide text is derived from it. Side-chain parts run from the residue outwards. [ ]: non-standard residue; d: D form. The star is where a group is joined. Decanoyl(10-(4-HOOC-PhO)) = O=C(O)c1ccc(OCCCCCCCCCC(=O)*)cc1; αMePhe(2-F) = C[C@](N)(Cc1ccccc1F)C(=O)O; γGlu = O=C(O)[C@H](CCC(=O)[*:2])N[*:1]; C14 diacid = O=C(O)CCCCCCCCCCCCC(=O)*; αMeY = C[C@](N)(Cc1ccc(O)cc1)C(=O)O; αMeF = C[C@](N)(Cc1ccccc1)C(=O)O; αMeL = CC(C)C[C@](C)(N)C(=O)O; Orn = NCCC[C@H](N)C(=O)O; AEEA = NCCOCCOCC(=O)O; Aib = CC(C)(N)C(=O)O

Common to all, as to format: cell-based
The target in one assay is T1, hGIPR (Homo sapiens, UniProt P48546).
T1 construct: expressed in transfected cells
T1 sequence (P48546 22-466): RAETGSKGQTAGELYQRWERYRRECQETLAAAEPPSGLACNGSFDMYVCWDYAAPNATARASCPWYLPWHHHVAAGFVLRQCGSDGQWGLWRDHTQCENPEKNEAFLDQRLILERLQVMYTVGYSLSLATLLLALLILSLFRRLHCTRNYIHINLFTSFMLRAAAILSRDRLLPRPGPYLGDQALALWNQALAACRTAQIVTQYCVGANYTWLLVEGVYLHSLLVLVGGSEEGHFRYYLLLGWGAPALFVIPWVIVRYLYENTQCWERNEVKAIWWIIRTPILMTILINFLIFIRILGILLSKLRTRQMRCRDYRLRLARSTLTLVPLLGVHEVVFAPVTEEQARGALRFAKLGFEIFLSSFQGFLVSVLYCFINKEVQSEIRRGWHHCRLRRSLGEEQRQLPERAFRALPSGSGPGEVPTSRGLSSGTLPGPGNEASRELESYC
Description: Functional cAMP formation (HTRF) in HEK-293 clonal cells expressing hGIPR, 0.1% bovine casein, without or with 1.0% human serum albumin. The following applies: for EC50: cAMP, 0.1% bovine casein (no human serum albumin), geometric mean. A digest of the protocol:
(§1)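 Cells were stimulated with peptide for 30 min at 37° C, then intracellular cAMP was measured by competitive HTRF (665/620 nm ratio) and converted to nM using a cAMP standard curve. Relative EC50 and Emax came from four-parameter logistic fits of percent maximal response against peptide concentration.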
(Cyclic AMP is a second messenger, typically raised through Gs and lowered through Gi signalling.)

The target of another assay is T2, hGCGR (Homo sapiens, UniProt P47871).
T2 construct: expressed in transfected cells
Description: Functional cAMP formation (HTRF) in HEK-293 clonal cells expressing hGCGR, 0.1% bovine casein, without or with 1.0% human serum albumin. The procedure, abridged:
as §1

The next assay concerns the target hGLP-1R (Homo sapiens, UniProt P43220). Description: Functional cAMP formation (HTRF) in HEK-293 clonal cells expressing hGLP-1R, 0.1% bovine casein, without or with 1.0% human serum albumin. Also on record: expressed in transfected cells. The following applies: for EC50: geometric mean. A digest of the protocol:
as §1

Setting [1] is: hGIPR EC50, nM (SEM, n), 37° C.
[2] abbreviates: hGCGR EC50, nM (SEM, n), cAMP, 37° C., 0.1% bovine casein (no human serum albumin), geometric mean.
The mark [3] stands for this setting: hGLP-1R EC50, nM (SEM, n), cAMP, 37° C., 0.1% bovine casein (no human serum albumin).
Setting [4] is: cAMP, incubated at 37° C., 0.1% bovine casein (no human serum albumin), geometric mean, read-out: hGCGR EC50, nM (SEM, n).

T2 sequence (P47871 26-477): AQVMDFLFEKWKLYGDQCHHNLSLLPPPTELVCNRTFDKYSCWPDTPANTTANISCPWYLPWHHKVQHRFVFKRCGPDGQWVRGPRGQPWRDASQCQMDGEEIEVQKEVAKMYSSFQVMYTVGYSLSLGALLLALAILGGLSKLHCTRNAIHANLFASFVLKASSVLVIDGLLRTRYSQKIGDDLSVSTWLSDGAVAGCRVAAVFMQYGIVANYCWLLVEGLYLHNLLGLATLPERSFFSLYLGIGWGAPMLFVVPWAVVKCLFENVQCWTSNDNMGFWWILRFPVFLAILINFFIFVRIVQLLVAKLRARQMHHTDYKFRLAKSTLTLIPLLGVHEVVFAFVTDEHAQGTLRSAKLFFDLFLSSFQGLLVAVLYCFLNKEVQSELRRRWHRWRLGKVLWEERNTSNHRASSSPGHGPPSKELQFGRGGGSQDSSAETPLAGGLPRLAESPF
Chain of hGLP-1R (P43220 24-463): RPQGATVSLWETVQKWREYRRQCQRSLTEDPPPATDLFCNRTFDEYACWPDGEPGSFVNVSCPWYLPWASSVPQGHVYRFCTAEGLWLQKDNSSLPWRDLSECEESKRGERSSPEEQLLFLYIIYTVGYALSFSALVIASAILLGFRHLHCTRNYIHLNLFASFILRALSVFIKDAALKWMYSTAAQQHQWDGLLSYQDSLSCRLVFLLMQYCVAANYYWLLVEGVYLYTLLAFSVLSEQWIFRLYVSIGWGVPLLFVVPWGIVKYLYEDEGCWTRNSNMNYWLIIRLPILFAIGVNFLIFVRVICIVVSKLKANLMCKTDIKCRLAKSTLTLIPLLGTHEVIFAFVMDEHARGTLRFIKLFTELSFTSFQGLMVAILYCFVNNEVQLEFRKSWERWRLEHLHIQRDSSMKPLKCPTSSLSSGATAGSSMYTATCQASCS

In the case of `CC[C@H](C)[C@H](NC(=O)[C@H](CC(C)C)NC(=O)[C@](C)(Cc1ccc(O)cc1)NC(=O)[C@@H](CCC(=O)O)NC(=O)[C@@H](NC(=O)[C@H](Cc1ccccc1)NC(=O)[C@H](CCC(=O)O)NC(=O)C(C)(C)NC(=O)[C@H](CCC(N)=O)NC(=O)[C@H](C)NC(=O)[C@H](CCCCNC(=O)COCCOCCNC(=O)CC[C@H](NC(=O)CCCCCCCCCOc1ccc(C(=O)O)cc1)C(=O)O)NC(=O)[C@H](CCCN)NC(=O)[C@H](CC(=O)O)NC(=O)[C@H](CC(C)C)NC(=O)[C@](C)(CC(C)C)NC(=O)[C@@H](NC(=O)C(C)(C)NC(=O)[C@H](Cc1ccc(O)cc1)NC(=O)[C@H](CC(=O)O)NC(=O)[C@H](CO)NC(=O)[C@@H](NC(=O)[C@](C)(Cc1ccccc1F)NC(=O)[C@@H](NC(=O)CNC(=O)[C@H](CCC(=O)O)NC(=O)C(C)(C)NC(=O)[C@@H](N)Cc1ccc(O)cc1)[C@@H](C)O)[C@@H](C)O)[C@@H](C)CC)[C@@H](C)CC)C(=O)N[C@@H](CCC(=O)O)C(=O)NCC(=O)NCC(=O)N1CCC[C@H]1C(=O)N[C@@H](CO)C(=O)N[C@@H](CO)C(=O)NCC(=O)N[C@@H](C)C(=O)N1CCC[C@H]1C(=O)N1CCC[C@H]1C(=O)N1CCC[C@H]1C(=O)N[C@@H](CO)C(=O)N[C@@H](CCCCNC(=O)COCCOCCNC(=O)CC[C@H](NC(=O)CCCCCCCCCOc1ccc(C(=O)O)cc1)C(=O)O)C(N)=O` [Example 374], the Emax – broadly, the maximal effect, on the per cent scale that the assay sets – at hGIPR (HEK293, read-out: hGIPR Emax, % ± SEM, cAMP, 37° C., 0.1% bovine casein and 1.0% human serum albumin, percent of maximal response to GIP(1-42)NH2) worked out at 88.8%; on hGIPR (HEK293, read-out: hGIPR Emax, % ± SEM, cAMP, 37° C., 0.1% bovine casein, percent of maximal response to GIP(1-42)NH2, arithmetic mean), 96.2%. Besides, the EC50 (as a rule, the midpoint of the concentration-response curve) at hGIPR (setting [1]) is 0.0135 nM; on hGCGR (setting [2]), greater than 9950 nM; on hGCGR (hGCGR EC50, nM (SEM, n), cAMP, 37° C., 0.1% bovine casein and 1.0% human serum albumin, geometric mean (SEM, n)), greater than 9950 nM; at hGLP-1R (setting [3]), 0.269 nM.
Turning to `CC[C@H](C)[C@H](NC(=O)[C@H](CC(C)C)NC(=O)[C@](C)(Cc1ccc(O)cc1)NC(=O)[C@@H](CCC(=O)O)NC(=O)[C@@H](NC(=O)[C@H](Cc1ccccc1)NC(=O)[C@H](CCC(=O)O)NC(=O)C(C)(C)NC(=O)[C@H](CCC(N)=O)NC(=O)CNC(=O)[C@H](CCCCNC(=O)COCCOCCNC(=O)COCCOCCNC(=O)CC[C@H](NC(=O)CCCCCCCCCCCCC(=O)O)C(=O)O)NC(=O)[C@H](CCCN)NC(=O)[C@H](CC(=O)O)NC(=O)[C@H](CC(C)C)NC(=O)[C@](C)(CC(C)C)NC(=O)[C@@H](NC(=O)[C@H](CO)NC(=O)[C@H](Cc1ccncc1)NC(=O)[C@H](CC(=O)O)NC(=O)[C@H](CO)NC(=O)[C@@H](NC(=O)[C@](C)(Cc1ccccc1F)NC(=O)[C@@H](NC(=O)CNC(=O)[C@H](CCC(=O)O)NC(=O)C(C)(C)NC(=O)[C@@H](N)Cc1ccc(O)cc1)[C@@H](C)O)[C@@H](C)O)[C@@H](C)CC)[C@@H](C)CC)C(=O)N[C@@H](CCC(=O)O)C(=O)NCC(=O)NCC(=O)N[C@@H](CCCCNC(=O)COCCOCCNC(=O)COCCOCCNC(=O)CC[C@H](NC(=O)CCCCCCCCCCCCC(=O)O)C(=O)O)C(=O)N[C@@H](CO)C(=O)N[C@@H](CO)C(=O)NCC(=O)N[C@@H](C)C(=O)N1CCC[C@H]1C(=O)N1CCC[C@H]1C(=O)N1CCC[C@H]1C(=O)N[C@@H](CO)C(N)=O` [Example 102], on hGIPR (HEK293, 0.1% bovine casein and 1.0% human serum albumin, 37° C., percent of maximal response to GIP(1-42)NH2, read-out: hGIPR Emax, % ± SEM), the maximal response (Emax) turned out to be 96.9%. Moreover, the EC50 at hGCGR (0.1% bovine casein and 1.0% human serum albumin, 37° C., geometric mean, read-out: hGCGR EC50, nM (SEM, n)) was greater than 9950 nM; at hGCGR (setting [4]) it was greater than 9950 nM; on hGLP-1R (cAMP, incubated at 37° C., 0.1% bovine casein (no human serum albumin), read-out: hGLP-1R EC50, nM (SEM, n)), 19.1 nM.
With `CC[C@H](C)[C@H](NC(=O)[C@H](CCCN)NC(=O)[C@H](CC(=O)O)NC(=O)[C@H](CC(C)C)NC(=O)[C@](C)(CC(C)C)NC(=O)[C@@H](NC(=O)[C@H](CO)NC(=O)[C@H](CCCCNC(=O)COCCOCCNC(=O)COCCOCCNC(=O)CC[C@H](NC(=O)CCCCCCCCCCCCC(=O)O)C(=O)O)NC(=O)[C@H](CC(=O)O)NC(=O)[C@H](CO)NC(=O)[C@@H](NC(=O)[C@](C)(Cc1ccccc1F)NC(=O)[C@@H](NC(=O)CNC(=O)[C@H](CCC(=O)O)NC(=O)C(C)(C)NC(=O)[C@@H](N)Cc1ccc(O)cc1)[C@@H](C)O)[C@@H](C)O)[C@@H](C)CC)C(=O)N[C@@H](C)C(=O)N[C@@H](CCC(N)=O)C(=O)NC(C)(C)C(=O)N[C@@H](CCC(=O)O)C(=O)N[C@@](C)(Cc1ccccc1)C(=O)N[C@H](C(=O)N[C@H](CCC(=O)O)C(=O)N[C@@](C)(Cc1ccc(O)cc1)C(=O)N[C@@H](CC(C)C)C(=O)N[C@H](C(=O)N[C@@H](CCCCNC(=O)COCCOCCNC(=O)COCCOCCNC(=O)CC[C@H](NC(=O)CCCCCCCCCCCCC(=O)O)C(=O)O)C(=O)NCC(=O)NCC(=O)N1CCC[C@H]1C(=O)N[C@@H](CO)C(=O)N[C@@H](CO)C(=O)NCC(=O)N[C@@H](C)C(=O)N1CCC[C@H]1C(=O)N1CCC[C@H]1C(=O)N1CCC[C@H]1C(=O)N[C@@H](CO)C(N)=O)[C@@H](C)CC)[C@@H](C)CC` [Example 111] (H-Y[Aib]EGT[αMePhe(2-F)]TSDK([AEEA-AEEA-γGlu-C14 diacid])SI[αMeL]LD[Orn]IAQ[Aib]E[αMeF]I[dE][αMeY]LIK([AEEA-AEEA-γGlu-C14 diacid])GGPSSGAPPPS-NH2; N-terminus assumed), the Emax on hGIPR (HEK293, percent of maximal response to GIP(1-42)NH2, 37° C., 0.1% bovine casein, arithmetic mean, read-out: hGIPR Emax, % ± SEM) amounted to 76.1%; on hGLP-1R (HEK293, percent of maximal response to GLP-1(7-36)NH2, 37° C., 0.1% bovine casein, arithmetic mean, read-out: hGLP-1R Emax, % ± SEM), 121%. Besides, the EC50 was 0.0202 nM at hGIPR (incubated at 37° C., read-out: hGIPR EC50, nM (SEM, n)) and greater than 9950 nM on hGCGR (setting [4]).
As for `CC[C@H](C)[C@H](NC(=O)[C@H](CCCN)NC(=O)[C@H](CC(=O)O)NC(=O)[C@H](CC(C)C)NC(=O)[C@](C)(CC(C)C)NC(=O)[C@@H](NC(=O)[C@H](CO)NC(=O)[C@H](Cc1ccc(OC)cc1)NC(=O)[C@H](CC(=O)O)NC(=O)[C@H](CO)NC(=O)[C@@H](NC(=O)[C@](C)(Cc1ccccc1F)NC(=O)[C@@H](NC(=O)CNC(=O)[C@H](CCC(=O)O)NC(=O)C(C)(C)NC(=O)[C@@H](N)Cc1ccc(O)cc1)[C@@H](C)O)[C@@H](C)O)[C@@H](C)CC)C(=O)N[C@@H](C)C(=O)N[C@@H](CCC(N)=O)C(=O)NC(C)(C)C(=O)N[C@@H](CCC(=O)O)C(=O)N[C@@H](Cc1ccccc1)C(=O)N[C@H](C(=O)N[C@@H](CCCCNC(=O)COCCOCCNC(=O)COCCOCCNC(=O)CC[C@H](NC(=O)CCCCCCCCCOc1ccc(C(=O)O)cc1)C(=O)O)C(=O)N[C@@](C)(Cc1ccc(O)cc1)C(=O)N[C@@H](CC(C)C)C(=O)N[C@H](C(=O)N[C@@H](CCCCNC(=O)COCCOCCNC(=O)COCCOCCNC(=O)CC[C@H](NC(=O)CCCCCCCCCOc1ccc(C(=O)O)cc1)C(=O)O)C(=O)NCC(=O)NCC(=O)N1CCC[C@H]1C(=O)N[C@@H](CO)C(=O)N[C@@H](CO)C(=O)NCC(=O)N[C@@H](C)C(=O)N1CCC[C@H]1C(=O)N1CCC[C@H]1C(=O)N1CCC[C@H]1C(=O)N[C@@H](CO)C(N)=O)[C@@H](C)CC)[C@@H](C)CC` [Example 279] (H-Y[Aib]EGT[αMePhe(2-F)]TSDY(Me)SI[αMeL]LD[Orn]IAQ[Aib]EFIK([AEEA-AEEA-γGlu-Decanoyl(10-(4-HOOC-PhO))])[αMeY]LIK([AEEA-AEEA-γGlu-Decanoyl(10-(4-HOOC-PhO))])GGPSSGAPPPS-NH2), the maximum response (Emax) on hGIPR (HEK293, read-out: hGIPR Emax, % ± SEM, 0.1% bovine casein and 1.0% human serum albumin, 37° C., percent of maximal response to GIP(1-42)NH2) stood at 88.6%; at hGLP-1R (HEK293, read-out: hGLP-1R Emax, % ± SEM, 0.1% bovine casein and 1.0% human serum albumin, 37° C., percent of maximal response to GLP-1(7-36)NH2), 114%; at hGLP-1R (HEK293, read-out: hGLP-1R Emax, % ± SEM, cAMP, 37° C., 0.1% bovine casein, percent of maximal response to GLP-1(7-36)NH2, arithmetic mean), 112%. Besides, the concentration giving a half-maximal response (EC50) was 0.0305 nM on hGIPR (setting [1]); greater than 9950 nM on hGCGR (hGCGR EC50, nM (SEM, n), 0.1% bovine casein and 1.0% human serum albumin, 37° C., geometric mean); greater than 9950 nM at hGCGR (setting [2]); 36.6 nM at hGLP-1R (hGLP-1R EC50, nM (SEM, n), 0.1% bovine casein and 1.0% human serum albumin, 37° C.); 0.406 nM at hGLP-1R (setting [3]).

The record behind these values is patent publication US20230265151A1, “GIP/GLP1 CO-AGONIST COMPOUNDS” (priority 2020, published 2023).
